The supplement of paper PMC10627819

Columns and labels:
Experiment in all cases: fitness (endpoint OD595 vs no drug) (fraction); higher = more growth
[1] = test system: B. subtilis 168
How it was run: (§1)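 Bacterial growth was followed in 384-well plates seeded at OD595 0.01, with 30 µl per well, or 55 µl for S. pneumoniae, in TSB, LB Lennox or CY at 37 °C. OD595 was read every 30 min for 14 h, and each reading had the first reading subtracted as background. Fitness is the background-corrected optical density at entry into stationary phase divided by the robust mean of the no-drug control wells. This ratio is capped at 1.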

[2] = test system: S. aureus DSM 20231
How it was run: as §1

[3] = test system: S. aureus Newman
How it was run: as §1

[4] = test system: S. pneumoniae D39V
How it was run: as §1

CC[C@H]1OC(=O)[C@H](C)[C@@H](O[C@H]2C[C@@](C)(OC)[C@@H](O)[C@H](C)O2)[C@H](C)[C@@H](O[C@@H]2O[C@H](C)C[C@H](N(C)C)[C@H]2O)[C@](C)(O)C[C@@H](C)CN(C)[C@H](C)[C@@H](O)[C@]1(C)O [Azithromycin] + CN(C)[C@@H]1C(O)=C(C(N)=O)C(=O)[C@@]2(O)C(O)=C3C(=O)c4c(O)ccc(Cl)c4[C@@](C)(O)[C@H]3C[C@@H]12 [Chlortetracycline]
fitness
Details | first compound 0.125 µg/mL | first compound 0.25 µg/mL | first compound 0.5 µg/mL
[1], partner 0.0475 µg/mL | – | 0.824 | –
[2], partner 0.012 µg/mL | – | – | 0.0274
[2], partner 0.024 µg/mL | 0.112 | 0.0335 | 0.0241
[2], partner 0.048 µg/mL | 0.0779 | 0.0451 | 0.0364

one replicate
Details | fitness
[1], first compound 2 µg/mL, partner 0.0475 µg/mL | 0.0292
[1], first compound 2 µg/mL, partner 0.095 µg/mL | 0.0192
[1], first compound 2 µg/mL, partner 0.19 µg/mL | 0.025
[2], first compound 0.125 µg/mL, partner 0.006 µg/mL | 0.629
[2], first compound 0.25 µg/mL, partner 0.006 µg/mL | 0.46
[2], first compound 0.5 µg/mL, partner 0.006 µg/mL | 0.0187

CC[C@H]1OC(=O)[C@H](C)[C@@H](O[C@H]2C[C@@](C)(OC)[C@@H](O)[C@H](C)O2)[C@H](C)[C@@H](O[C@@H]2O[C@H](C)C[C@H](N(C)C)[C@H]2O)[C@](C)(O)C[C@@H](C)CN(C)[C@H](C)[C@@H](O)[C@]1(C)O [Azithromycin] + CO[C@@]12[C@H](COC(N)=O)C3=C(C(=O)C(C)=C(N)C3=O)N1C[C@@H]1N[C@@H]12 [Mitomycin C]
fitness
Details | first compound 0.125 µg/mL | first compound 0.25 µg/mL | first compound 0.5 µg/mL
[2], partner 0.0156 µg/mL | 0.674 | 0.701 | 0.366
[2], partner 0.0312 µg/mL | 0.661 | 0.664 | 0.314
[2], partner 0.0625 µg/mL | 0.547 | 0.491 | 0.171
[3], partner 0.0156 µg/mL | 0.719 | 0.726 | 0.561
[3], partner 0.0312 µg/mL | 0.671 | 0.638 | 0.53
[3], partner 0.0625 µg/mL | 0.559 | 0.551 | 0.365

CC[C@H]1OC(=O)[C@H](C)[C@@H](O[C@H]2C[C@@](C)(OC)[C@@H](O)[C@H](C)O2)[C@H](C)[C@@H](O[C@@H]2O[C@H](C)C[C@H](N(C)C)[C@H]2O)[C@](C)(O)C[C@@H](C)CN(C)[C@H](C)[C@@H](O)[C@]1(C)O [Azithromycin] + N[C@@H]1CONC1=O [Cycloserine D]
fitness
Details | first compound 0.125 µg/mL | first compound 0.25 µg/mL | first compound 0.5 µg/mL
[1], partner 0.125 µg/mL | – | 0.946 | 0.884
[1], partner 0.25 µg/mL | – | 0.918 | 0.854
[1], partner 0.5 µg/mL | – | 0.892 | 0.826
[2], partner 0.375 µg/mL | 0.935 | 0.881 | –
[2], partner 0.75 µg/mL | 0.887 | 0.869 | –
[2], partner 1.5 µg/mL | 0.948 | 0.881 | –
[3], partner 0.375 µg/mL | 0.887 | 0.868 | 0.674
[3], partner 0.75 µg/mL | 0.906 | 0.908 | –
[3], partner 1.5 µg/mL | 0.898 | 0.905 | 0.665

[1], first compound 2 µg/mL, one replicate
Details | fitness
partner 0.125 µg/mL | 0.348
partner 0.25 µg/mL | 0.0742
partner 0.5 µg/mL | 0.066

O=C(O)[C@H]1/C(=C/CO)O[C@@H]2CC(=O)N21 [Clavulanic acid] + CCC[C@@H]1C[C@@H](C(=O)N[C@@H]([C@H]2O[C@H](SC)[C@H](O)[C@@H](O)[C@H]2O)[C@H](C)Cl)N(C)C1 [Clindamycin]
fitness, one replicate
Details | first compound 0.03125 µg/mL | first compound 0.0625 µg/mL | first compound 0.125 µg/mL | first compound 1.5 µg/mL | first compound 3 µg/mL | first compound 6 µg/mL
[1], partner 0.0039 µg/mL | – | – | – | 0.957 | 0.974 | 0.931
[1], partner 0.0078 µg/mL | – | – | – | 0.842 | 0.826 | 0.791
[1], partner 0.0156 µg/mL | – | – | – | 0.836 | 0.763 | 0.739
[3], partner 0.0312 µg/mL | 0.863 | 0.889 | 0.785 | – | – | –
[3], partner 0.0625 µg/mL | 0.544 | 0.518 | 0.402 | – | – | –
[3], partner 0.125 µg/mL | 0.38 | 0.375 | 0.282 | – | – | –

fitness
Details | partner 0.0125 µg/mL | partner 0.015 µg/mL | partner 0.025 µg/mL | partner 0.03 µg/mL | partner 0.05 µg/mL | partner 0.06 µg/mL | partner 0.0625 µg/mL | partner 0.125 µg/mL | partner 0.25 µg/mL
[1], first compound 1.5 µg/mL | – | – | – | – | – | – | 0.609 | 0.322 | 0.308
[1], first compound 3 µg/mL | – | – | – | – | – | – | 0.404 | 0.313 | 0.26
[1], first compound 6 µg/mL | – | – | – | – | – | – | 0.398 | 0.24 | 0.217
[4], first compound 0.5 µg/mL | 0.779 | 0.789 | 0.511 | 0.516 | 0.134 | 0.305 | – | – | –
[4], first compound 1 µg/mL | 0.749 | 0.78 | 0.485 | 0.567 | 0.116 | 0.417 | – | – | –
[4], first compound 2 µg/mL | 0.683 | 0.566 | 0.407 | 0.399 | 0.101 | 0.245 | – | – | –

O=C(O)[C@H]1/C(=C/CO)O[C@@H]2CC(=O)N21 [Clavulanic acid] + CCN(CC)CCOC(=O)c1ccc(N)cc1 [Procaine]
fitness
Details | first compound 0.5 µg/mL | first compound 1 µg/mL | first compound 1.5 µg/mL | first compound 2 µg/mL | first compound 3 µg/mL | first compound 6 µg/mL
[1], partner 85.5 µg/mL | – | – | 0.876 | – | 0.839 | 0.746
[1], partner 171 µg/mL | – | – | 0.92 | – | 0.831 | 0.739
[1], partner 342 µg/mL | – | – | 0.902 | – | 0.795 | 0.672
[4], partner 85.5 µg/mL | 0.994 | 0.957 | – | 0.832 | – | –
[4], partner 171 µg/mL | ≥ 1 | 0.977 | – | 0.912 | – | –
[4], partner 342 µg/mL | ≥ 1 | 0.934 | – | 0.795 | – | –

fitness, [3], one replicate
Details | first compound 0.03125 µg/mL | first compound 0.0625 µg/mL | first compound 0.125 µg/mL
partner 85.5 µg/mL | 0.948 | 0.982 | 0.872
partner 171 µg/mL | 0.929 | ≥ 1 | 0.852
partner 342 µg/mL | 0.963 | ≥ 1 | 0.894

O=C(O)[C@H]1/C(=C/CO)O[C@@H]2CC(=O)N21 [Clavulanic acid] + CN1C2=CC=CC=C2N=C3C1=CC=CC3=O [Pyocyanin]
fitness
Details | first compound 0.5 µg/mL | first compound 1 µg/mL | first compound 1.5 µg/mL | first compound 2 µg/mL | first compound 3 µg/mL | first compound 6 µg/mL
[1], partner 1.25 µg/mL | – | – | 0.91 | – | 0.798 | 0.748
[1], partner 2.5 µg/mL | – | – | 0.837 | – | 0.818 | 0.719
[1], partner 5 µg/mL | – | – | 0.678 | – | 0.665 | 0.604
[4], partner 0.65 µg/mL | ≥ 1 | 0.94 | – | 0.861 | – | –
[4], partner 1.3 µg/mL | 0.765 | 0.791 | – | 0.581 | – | –

fitness, [3], one replicate
Details | first compound 0.03125 µg/mL | first compound 0.0625 µg/mL | first compound 0.125 µg/mL
partner 1.25 µg/mL | 0.884 | 0.934 | 0.855
partner 2.5 µg/mL | 0.898 | 0.87 | 0.827
partner 5 µg/mL | 0.723 | 0.785 | 0.74
